Test results reported in patent US4874844A, “Tripeptide with immunostimulating activity” (Ellem Industria Farmaceutica S.p.A., priority 1986, dated 1989).
Peptide text beside a SMILES is read from it.

How the values were obtained:
[1] = test system: guinea-pig; conditions: in vivo, 100 mg/kg
[2] = test system: mice; assay: Tolerability in mice; assay type: in vivo; conditions: 100 mg/Kg i.p.
[3] = test system: rats; assay: Acute toxicity in rats; assay type: in vivo; conditions: up to a dose of 1000 mg/Kg i.m.
[4] = assay type: in vitro ADME
Excerpt: Resistance to the In Vitro Simulated Gastric Ambient The tripeptide is resistant to the in vitro simulated gastric ambient. In this study the gastric simulated juice USP XXI (HCl+pepsin) has been used at 37 C for 5 hrs.

[5] = Pentobarbital-induced sleeping time; assay type: in vivo; conditions: 100 mg/Kg
[6] = test system: rabbits; assay: Tolerability in rabbits; assay type: in vivo; conditions: 100 mg/Kg i.v.
[7] = test system: mice; assay: Acute toxicity in mice; assay type: in vivo; conditions: up to a dose of 1000 mg/Kg i.m.

For `N=C(N)NCCC[C@H](N)C(=O)N[C@@H](CCCCN)C(=O)N[C@@H](CCC(=O)O)C(=O)O` [ELS1, Arg-Lys-Glu] (H-Arg-Lys-Glu-OH), the sensitization phenomena [1] was “doesn't induce any sensitization phenomena”, the “tolerability: hemodynamic modification and behavioral effect” value [2] was “doesn't cause any hemodynamic modification and behavioral effect” and the acute toxicity [3] was “totally devoid of toxic effects”. The “resistance to the in vitro simulated gastric ambient” value [4] was “resistant”, the pentobarbital-induced sleeping time [5] was “only a slight increase” and the “tolerability: hemodynamic modification and behavioral effect” value [6] was “doesn't cause any hemodynamic modification and behavioral effect”. For the same compound, the acute toxicity [7] was “totally devoid of toxic effects”.
